The text below walks through data of patent EP4806900A2, “RAS INHIBITORS” (Revolution Medicines, Inc., priority 2019, dated 2021).

Each structure is given as a SMILES string. “And” between values parts separate entries of the source, which are not always exact repeats. Equal entries are not always repeated.

The term IC50 denotes the concentration needed to halve the response being measured.

The subject of the first experiment is NCI-H358 (K-Ras G12C). In words: CellTiter-Glo cell viability assay, NCI-H358. The class given is cell-based, human. The note with it: Homo sapiens, NCI-H358, Table 5; read-out: H358 Cell Viability assay data (K-Ras G12C, IC50). Here is the method: Note - The following protocol describes a procedure for monitoring cell viability of K-Ras mutant cancer cell lines in response to a compound of the invention. Other RAS isoforms may be employed, though the number of cells to be seeded will vary based on cell line used.
Test compounds (132.5 nL) were directly dispensed into the assay plates containing cells. […] On day 5, assay plates and their contents were equilibrated to room temperature for approximately 30 minutes. […] Luminescence was measured using the PerkinElmer Enspire. Data were normalized by the following: (Sample signal/Avg. DMSO)*100. The data were fit using a four-parameter logistic fit.
(ATP-based viability assays read luminescence as a measure of living cells.)
On to `CCn1c(-c2cccnc2[C@H](C)OC)c2c3cc(ccc31)N1CCO[C@@H](C[C@H](NC(=O)[C@H](C(C)C)N3CC[C@@]4(CCN(C(=O)C#CC(C)(C)N(C)C)C4)C3=O)C(=O)N3CCC[C@H](N3)C(=O)OCC(C)(C)C2)C1` (atropisomer, axis not shown) [Compound A614], for which the IC50 is 0.01 to 0.1 µM. Consider `C=CC(=O)N1CC[C@H](C(=O)N(C)[C@H](C(=O)N[C@H]2CC3=NN=C(O3)c3ccc4c(c3)c(c(-c3cccnc3[C@H](C)OCC)n4CC(F)(F)F)CC(C)(C)COC(=O)[C@@H]3CCCN(N3)C2=O)C(C)C)C1` [Compound A424], for which the IC50 lay within 0.1 to 1 µM. Regarding `CO[C@@H](C)c1ncccc1-c1c2c3cc(ccc3n1CC(F)(F)F)-c1nnc(o1)C[C@H](NC(=O)[C@H](C(C)C)N(C)C(=O)[C@H]1CCN(C(=O)C#CC(C)(C)N3CCC3)C1)C(=O)N1CCC[C@H](N1)C(=O)OCC(C)(C)C2` [Compound A423], the IC50 was 0.01 to 0.1 µM. On to `C=CC(=O)N1CC[C@@H](C(=O)N(C)[C@H](C(=O)N[C@H]2Cc3cccc(c3)-c3ccc4c(c3)c(c(-c3cccnc3[C@H](C)OC)n4CC)CC(C)(C)COC(=O)[C@@H]3CCCN(N3)C2=O)C(C)C)C1` (atropisomer, axis not shown) [Compound A488], for which the IC50 was under 0.01 µM.

Staying with this experiment, now noted: Homo sapiens, NCI-H358, read-out: H358 Cell Viability assay data (K-Ras G12C, IC50, uM), Table 5.
Regarding `C=CC(=O)N1CC[C@H](C(=O)N(C)[C@H](C(=O)N[C@H]2Cc3cc(O)cc(c3)-c3ccc4c(c3)c(c(-c3cccnc3)n4[C@H](C)C#N)CC(C)(C)COC(=O)[C@@H]3CCCN(N3)C2=O)C(C)C)C1` [A193], the IC50 was in the range of 0.1 to 1 µM. As for `C=CC(=O)N1CC[C@H](C(=O)N(C)[C@H](C(=O)N[C@H]2Cc3cc(O)cc(c3)-c3ccc4c(c3)c(c(-c3cnccc3[C@H](C)OC)n4CC)CC(C)(C)COC(=O)[C@@H]3CCCN(N3)C2=O)C(C)C)C1` [Compound A112], the IC50 was under 0.01 µM.

As for `C=CC(=O)N1CCN(C(=O)N(C)[C@H](C(=O)N[C@H]2Cc3nc(cs3)-c3ccc4c(c3)c(c(-c3cccnc3[C@H](C)OC)n4CC(F)(F)F)CC(C)(C)COC(=O)[C@@H]3CCCN(N3)C2=O)C(C)C)CC1` [Compound A464], the IC50 was under 0.01 µM. Take `CCn1c(-c2cccnc2[C@H](C)OC)c2c3cc(ccc31)-c1cccc(c1)C[C@H](NC(=O)[C@H](C(C)C)N1CC[C@]3(CCN(C(=O)C#C[C@H]4COCCN4C)C3)C1=O)C(=O)N1CCC[C@H](N1)C(=O)OCC(C)(C)C2` (atropisomer, axis not shown) [Compound A592]: the IC50 was under 0.01 µM. The same measure, in the same setting: to `CCn1c(-c2cccnc2COC)c2c3cc(ccc31)-c1cc(O)cc(c1)C[C@H](NC(=O)[C@H](C(C)C)N(C)C(=O)[C@H]1CCN(C(=O)C#CCOC)C1)C(=O)N1CCC[C@H](N1)C(=O)OCC(C)(C)C2` [Compound A135] belongs under 0.01 µM.

Staying with this experiment, now noted: Table 5; read-out: H358 Cell Viability assay data (K-Ras G12C, IC50).
For the molecule `CCn1c(-c2cccnc2COC)c2c3cc(ccc31)-c1cc(O)cc(c1)C[C@H](NC(=O)[C@H](C(C)C)N(C)C(=O)[C@H]1CCN(C(=O)/C=C/CN(C)C)C1)C(=O)N1CCC[C@H](N1)C(=O)OCC(C)(C)C2` [Compound A54, (2S)-2-{1-[(3S)-1-[(2E)-4-(dimethylamino)but-2-enoyl]pyrrolidin-3-yl]-N-methylformamido}-N-[(8S,14S)-22-ethyl-4-hydroxy-21-[2-(methoxymethyl)pyridin-3-yl]-18,18-dimethyl-9,15-dioxo-16-oxa-10,22,28-triazapentacyclo[18.5.2.1^2,^6.1^10,^14.0^23,^27]nonacosa-1(26),2,4,6(29),20,23(27),24-heptaen-8-yl]-3-methylbutanamide], the IC50 fell in the range of 0.01 to 0.1 µM. As for `C=CC(=O)N1CC[C@H](C(=O)N(C)[C@H](C(=O)N[C@H]2Cc3cc(O)cc(c3)-c3ccc4c(c3)c(c(-c3c(CCOC)cccc3OC)n4CC)CC(C)(C)COC(=O)[C@@H]3CCCN(N3)C2=O)C(C)C)C1` [Compound A80], the IC50 lay in the range of 0.1 to 1 µM. On to `C=CC(=O)N1CC[C@H](C(=O)N(C)[C@H](C(=O)N[C@H]2Cc3cc(O)cc(c3)-c3ccc4c(c3)c(c(-c3cccnc3COC)n4CC)CC(C)(C)COC(=O)[C@@H]3CCCN(N3)C2=O)C(C)C)C1` [Compound A16], for which the IC50 was 0.01 to 0.1 µM.

Consider `C=CC(=O)N1CC[C@H](C(=O)N(C)[C@H](C(=O)N[C@H]2Cc3cc(O)cc(c3)-c3ccc4c(c3)c(c(-c3ccc(CN(C)C)cc3COC)n4CC)CC(C)(C)COC(=O)[C@@H]3CCCN(N3)C2=O)C(C)C)C1` [Compound A51], for which the IC50 was 0.01 to 0.1 µM. With `C=CC(=O)N1CCC(F)(C(=O)N(C)[C@H](C(=O)N[C@H]2Cc3cc(O)cc(c3)-c3ccc4c(c3)c(c(-c3ccccc3CCOC)n4CC)CC(C)(C)COC(=O)[C@@H]3CCCN(N3)C2=O)C(C)C)CC1` [Compound A11], the IC50 lay in the range of 0.1 to 1 µM.

With `C=CC(=O)N1CCC(F)(C(=O)N(C)[C@H](C(=O)N[C@H]2Cc3cc(O)cc(c3)-c3ccc4c(c3)c(c(-c3ccccc3CN(C)C)n4CC)CC(C)(C)COC(=O)[C@@H]3CCCN(N3)C2=O)C(C)C)CC1` [Compound A20], the IC50 fell in the range of 0.01 to 0.1 µM. Consider `CCn1c(-c2ccccc2CCOC)c2c3cc(ccc31)-c1cc(O)cc(c1)C[C@H](NC(=O)[C@H](C(C)C)N(C)C(=O)[C@H]1CCN(C(=O)C#CCN(C)C)C1)C(=O)N1CCC[C@H](N1)C(=O)OCC(C)(C)C2` [Compound A38], for which the IC50 is under 0.01 µM.

With `C=CC(=O)N1CC[C@H](C(=O)N(C)[C@H](C(=O)N[C@H]2Cc3cc(O)cc(c3)-c3ccc4c(c3)c(c(-c3cccnc3[C@H](C)OC)n4CC)CC(C)(C)COC(=O)[C@@H]3CCCN(N3)C2=O)C(C)C)C1` [Compound A75, (2S)-N-[(8S,14S,20M)-22-ethyl-4-hydroxy-21-{2-[(1S)-1-methoxyethyl]pyridin-3-yl}-18,18-dimethyl-9,15-dioxo-16-oxa-10,22,28-triazapentacyclo[18.5.2.1^2,^6.1^10,^14.0^23,^27]nonacosa-1(26),2,4,6(29),20,23(27),24-heptaen-8-yl]-3-methyl-2-{N-methyl-1-[(3S)-1-(prop-2-enoyl)pyrrolidin-3-yl]formamido}butanamide], the IC50 is < 0.01 µM and 0.01 to 0.1 µM.

On to `C=CC(=O)N1CC[C@H](C(=O)N(C)[C@H](C(=O)N[C@H]2Cc3cc(O)cc(c3)-c3ccc4c(c3)c(c(-c3cncc(C#N)c3)n4CC)CC(C)(C)COC(=O)[C@@H]3CCCN(N3)C2=O)C(C)C)C1` [Compound A62], for which the IC50 was in the range of 0.01 to 0.1 µM. For `CCn1c(-c2cccnc2COC)c2c3cc(ccc31)-c1cc(O)cc(c1)C[C@H](NC(=O)[C@H](C(C)C)N(C)C(=O)[C@H]1CCN(C(=O)C#CCN(C)C)C1)C(=O)N1CCC[C@H](N1)C(=O)OCC(C)(C)C2` [Compound A96], the IC50 was under 0.01 µM. As to `C=CC(=O)N1C[C@H](C)[C@H](C(=O)N(C)[C@H](C(=O)N[C@H]2Cc3cc(O)cc(c3)-c3ccc4c(c3)c(c(-c3ccccc3CCOC)n4CC)CC(C)(C)COC(=O)[C@@H]3CCCN(N3)C2=O)C(C)C)C1` [Compound A41], the IC50 was 0.01 to 0.1 µM. Turning to `C=CC(=O)N1CC[C@H](C(=O)N(C)[C@H](C(=O)N[C@H]2Cc3cc(OC(=O)CN)cc(c3)-c3ccc4c(c3)c(c(-c3ccccc3CCOC)n4CC)CC(C)(C)COC(=O)[C@@H]3CCCN(N3)C2=O)C(C)C)C1` [Compound A8], the IC50 was in the range of 0.1 to 1 µM. On to `C=CC(=O)N1CC[C@H](C(=O)N(C)[C@H](C(=O)N[C@H]2Cc3cc(O)cc(c3)-c3ccc4c(c3)c(c(-c3cn(C)cn3)n4CC)CC(C)(C)COC(=O)[C@@H]3CCCN(N3)C2=O)C(C)C)C1` [Compound A113], for which the concentration for half-maximal inhibition (IC50) was 0.1 to 1 µM. For `C=CC(=O)N1CC[C@H](C(=O)N(C)[C@H](C(=O)N[C@H]2Cc3cc(O)cc(c3)-c3ccc4c(c3)c(c(-c3ccc5cc(CN(C)C)n(C)c5c3)n4CC)CC(C)(C)COC(=O)[C@@H]3CCCN(N3)C2=O)C(C)C)C1` [Compound A35], the 50% inhibitory concentration (IC50) was in the range of 0.01 to 0.1 µM. Still for that read-out and setting: to `C=CC(=O)N1CC[C@H](C(=O)N(C)[C@H](C(=O)N[C@H]2Cc3cc(O)cc(c3)-c3ccc4c(c3)c(c(-c3ncccc3COC)n4CC)CC(C)(C)COC(=O)[C@@H]3CCCN(N3)C2=O)C(C)C)C1` [Compound A84] belongs 0.1 to 1 µM. Regarding `C=CC(=O)N1CC[C@H](C(=O)N(C)[C@H](C(=O)N[C@H]2Cc3nc(cs3)-c3ccc4c(c3)c(c(-c3cccnc3COC)n4CC)CC(C)(C)COC(=O)[C@@H]3CCCN(N3)C2=O)C(C)C)C1` [Compound A94], the IC50 was 0.01 to 0.1 µM. Consider `C=CC(=O)N1CC[C@H](C(=O)N(C)[C@H](C(=O)N[C@H]2Cc3cc(O)cc(c3)-c3ccc4c(c3)c(c(-c3ccccc3CN(C)C)n4CC)CC(C)(C)COC(=O)[C@@H]3CCCN(N3)C2=O)C(C)C)C1` [Compound A5], for which the IC50 was 0.01 to 0.1 µM. Still for that read-out and setting: as for `C=CC(=O)N1CC[C@H](C(=O)N(C)[C@H](C(=O)N[C@H]2Cc3cc(O)cc(c3)-c3ccc4c(c3)c(c(-c3cnccc3[C@H](C)OC)n4CC)CC(C)(C)COC(=O)[C@@H]3CCCN(N3)C2=O)C(C)C)C1` [Compound A76], the figure is under 0.01 µM; as for `C=CC(=O)N1CC[C@H](C(=O)N(C)[C@H](C(=O)N[C@H]2Cc3cc(O)cc(c3)-c3ccc4c(c3)c(c(-c3cccnc3)n4C(C)(C)C#N)CC(C)(C)COC(=O)[C@@H]3CCCN(N3)C2=O)C(C)C)C1` [Compound A74], 0.01 to 0.1 µM.

With `C=CC(=O)N1CC[C@H](C(=O)N(C)[C@H](C(=O)N[C@H]2Cc3cc(O)cc(c3)-c3ccc4c(c3)c(c(-c3cncnc3)n4CC)CC(C)(C)COC(=O)[C@@H]3CCCN(N3)C2=O)C(C)C)C1` [Compound A61], the IC50 was in the range of 0.01 to 0.1 µM. `C=CC(=O)N1CC[C@H](C(=O)N(C)[C@H](C(=O)N[C@H]2Cc3cc(O)cc(c3)-c3ccc4c(c3)c(c(-c3cnccc3C)n4CC)CC(C)(C)COC(=O)[C@@H]3CCCN(N3)C2=O)C(C)C)C1` [Compound A77]: the IC50 was 0.01 to 0.1 µM.

The experiment is the same for the next values; noted with them: read-out: H358 Cell Viability assay data (K-Ras G12C, IC50); Table 5.
`C=CC(=O)N1CC[C@H](C(=O)N(C)[C@H](C(=O)N[C@H]2Cc3nc(cs3)-c3ccc4c(c3)c(c(-c3cc(C5=CCN(C)CC5)cnc3[C@H](C)OC)n4CC)CC(C)(C)COC(=O)[C@@H]3CCCN(N3)C2=O)C(C)C)C1` (atropisomer, axis not shown) [Compound A520]: the IC50 was under 0.01 µM.
